Laboratory results reported in ChEMBL document CHEMBL1125455, “Novel anthraquinone inhibitors of human leukocyte elastase and cathepsin G” (J Med Chem, 1992).
Blank lines part the entries; values can stand above or below the compound they belong to. The source made the active and inactive calls. No cut-off for these calls is given here.

Tests used:
[1] = biological target: T1, Cathepsin G (Homo sapiens) (UniProt P08311); assay: Inhibitory activity against Cathepsin G (CatG) at 30 uM concentration
T1 sequence (whole entry): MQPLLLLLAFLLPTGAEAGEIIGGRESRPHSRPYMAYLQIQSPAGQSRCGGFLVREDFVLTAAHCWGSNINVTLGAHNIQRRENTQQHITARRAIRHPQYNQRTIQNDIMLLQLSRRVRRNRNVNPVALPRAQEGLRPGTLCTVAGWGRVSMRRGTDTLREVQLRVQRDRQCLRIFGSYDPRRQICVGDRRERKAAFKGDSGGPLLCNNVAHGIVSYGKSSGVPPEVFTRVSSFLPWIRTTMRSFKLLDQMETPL

[2] = biological target: T2, Chymotrypsin-like elastase family member 2A (Sus scrofa) (UniProt P08419); assay: Inhibitory activity against Porcine Pancreatic Elastase (PPE) at 30 uM concentration; NI = no inhibition
T2 sequence (whole entry): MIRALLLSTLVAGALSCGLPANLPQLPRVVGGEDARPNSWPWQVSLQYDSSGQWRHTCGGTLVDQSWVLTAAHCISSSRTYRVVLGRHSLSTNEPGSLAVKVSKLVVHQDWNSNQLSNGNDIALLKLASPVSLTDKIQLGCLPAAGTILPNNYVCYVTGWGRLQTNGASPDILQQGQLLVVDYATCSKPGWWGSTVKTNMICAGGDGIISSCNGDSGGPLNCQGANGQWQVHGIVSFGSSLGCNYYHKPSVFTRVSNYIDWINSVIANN

[3] = biological target: T3, Neutrophil elastase (Homo sapiens) (UniProt P08246); assay: Inhibitory activity against Human Leukocyte Elastase (HLE) at 30 uM concentration
T3 sequence (whole entry): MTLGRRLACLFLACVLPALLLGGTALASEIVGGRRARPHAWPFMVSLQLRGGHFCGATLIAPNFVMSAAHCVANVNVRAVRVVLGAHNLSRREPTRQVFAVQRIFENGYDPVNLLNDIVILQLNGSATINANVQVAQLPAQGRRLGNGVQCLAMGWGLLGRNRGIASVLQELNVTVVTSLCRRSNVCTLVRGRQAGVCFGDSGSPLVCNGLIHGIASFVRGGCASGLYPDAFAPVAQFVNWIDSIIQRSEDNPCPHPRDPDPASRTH

[4] = biological target: T4, Neutrophil elastase (Homo sapiens, UniProt P08246); assay: Compound was tested for the enzyme inhibitory activity against Human Leukocyte Elastase (HLE) at 30 uM concentration
T4 sequence (P08246 whole entry): T3 sequence (whole entry)

[5] = biological target: T1, Cathepsin G (Homo sapiens); assay: Inhibitory activity against Cathepsin G (CatG) at 62 uM concentration; NI = no inhibition
[6] = biological target: Chymotrypsinogen A (Bos taurus) (UniProt P00766); assay: Inhibitory activity against Chymotrypsinogen at 62 uM concentration; conditions: Sus scrofa
[7] = biological target: T4, Neutrophil elastase; assay: Compound was tested for the enzyme inhibitory activity against Human Leukocyte Elastase (HLE) at 62 uM concentration
[8] = biological target: T2, Chymotrypsin-like elastase family member 2A (Sus scrofa); assay: Inhibitory activity against Porcine Pancreatic Elastase (PPE) at 62 uM concentration
[9] = biological target: T3, Neutrophil elastase (Homo sapiens); assay: Inhibitory activity against Human Leukocyte Elastase (HLE) at 62 uM concentration
[10] = biological target: T4, Neutrophil elastase; assay: Compound was tested for the enzyme inhibitory activity against Human Leukocyte Elastase (HLE) at 52 uM concentration
[11] = biological target: T3, Neutrophil elastase (Homo sapiens); assay: Inhibitory activity against Human Leukocyte Elastase (HLE) at 52 uM concentration
[12] = biological target: Chymotrypsinogen A (Bos taurus) (UniProt P00766); assay: Inhibitory activity against Chymotrypsinogen at 52 uM concentration; NI = no inhibition
[13] = biological target: T2, Chymotrypsin-like elastase family member 2A (Sus scrofa); assay: Inhibitory activity against Porcine Pancreatic Elastase (PPE) at 52 uM concentration; NI = no inhibition
[14] = biological target: T3, Neutrophil elastase (Homo sapiens); assay: Inhibitory activity against Human Leukocyte Elastase (HLE) at 29 uM concentration; NI = no inhibition
[15] = biological target: Chymotrypsinogen A (Bos taurus) (UniProt P00766); assay: Inhibitory activity against Chymotrypsinogen at 29 uM concentration; NI = no inhibition
[16] = biological target: T1, Cathepsin G (Homo sapiens); assay: Inhibitory activity against Cathepsin G (CatG) at 29 uM concentration
[17] = biological target: T2, Chymotrypsin-like elastase family member 2A (Sus scrofa); assay: Inhibitory activity against Porcine Pancreatic Elastase (PPE) at 29 uM concentration; NI = no inhibition
[18] = biological target: T3, Neutrophil elastase (Homo sapiens); assay: Inhibitory activity against Human Leukocyte Elastase (HLE) at 28 uM concentration
[19] = biological target: Chymotrypsinogen A (Bos taurus) (UniProt P00766); assay: Inhibitory activity against Chymotrypsinogen at 28 uM concentration
[20] = biological target: T1, Cathepsin G (Homo sapiens); assay: Inhibitory activity against Cathepsin G (CatG) at 28 uM concentration
[21] = biological target: T2, Chymotrypsin-like elastase family member 2A (Sus scrofa); assay: Inhibitory activity against Porcine Pancreatic Elastase (PPE) at 28 uM concentration; NI = no inhibition
[22] = biological target: Chymotrypsinogen A (Bos taurus) (UniProt P00766); assay: Inhibitory activity against Chymotrypsinogen at 28 uM concentration; NI = no inhibition
[23] = biological target: T4, Neutrophil elastase; assay: Compound was tested for the enzyme inhibitory activity against Human Leukocyte Elastase (HLE) at 28 uM concentration
[24] = biological target: T1, Cathepsin G (Homo sapiens); assay: Inhibitory activity against Cathepsin G (CatG) at 62 uM concentration
[25] = biological target: Chymotrypsinogen A (Bos taurus) (UniProt P00766); assay: Inhibitory activity against Chymotrypsinogen at 62 uM concentration; NI = no inhibition; conditions: Sus scrofa
[26] = biological target: T2, Chymotrypsin-like elastase family member 2A (Sus scrofa); assay: Inhibitory activity against Porcine Pancreatic Elastase (PPE) at 86 uM concentration; NI = no inhibition
[27] = biological target: T3, Neutrophil elastase (Homo sapiens); assay: Inhibitory activity against Human Leukocyte Elastase (HLE) at 86 uM concentration; NI = no inhibition
[28] = biological target: T1, Cathepsin G (Homo sapiens); assay: Inhibitory activity against Cathepsin G (CatG) at 86 uM concentration
[29] = biological target: T3, Neutrophil elastase (Homo sapiens); assay: Inhibitory activity against Human Leukocyte Elastase (HLE) at 55 uM concentration
[30] = biological target: T1, Cathepsin G (Homo sapiens); assay: Inhibitory activity against Cathepsin G (CatG) at 55 uM concentration
[31] = biological target: T2, Chymotrypsin-like elastase family member 2A (Sus scrofa); assay: Inhibitory activity against Porcine Pancreatic Elastase (PPE) at 55 uM concentration; NI = no inhibition
[32] = biological target: Chymotrypsinogen A (Bos taurus) (UniProt P00766); assay: Inhibitory activity against Chymotrypsinogen at 55 uM concentration
[33] = biological target: T4, Neutrophil elastase; assay: Compound was tested for the enzyme inhibitory activity against Human Leukocyte Elastase (HLE) at 55 uM concentration
[34] = biological target: T2, Chymotrypsin-like elastase family member 2A (Sus scrofa); assay: Inhibitory activity against Porcine Pancreatic Elastase (PPE) at 70 uM concentration; NI = no inhibition
[35] = biological target: T3, Neutrophil elastase (Homo sapiens); assay: Inhibitory activity against Human Leukocyte Elastase (HLE) at 70 uM concentration; NI = no inhibition
[36] = biological target: Chymotrypsinogen A (Bos taurus) (UniProt P00766); assay: Inhibitory activity against Chymotrypsinogen at 70 uM concentration; NI = no inhibition; conditions: Sus scrofa
[37] = biological target: T1, Cathepsin G (Homo sapiens); assay: Inhibitory activity against Cathepsin G (CatG) at 70 uM concentration

- inhibition [1]: 24%
- inhibition [2]: inactive
- inhibition [3]: 61%
- IC50 [4]: 17 µM
SMILES: COc1cc(OC)c2c(c1)C(=O)c1cc(C(Br)Br)cc(OC)c1C2=O

- inhibition [5]: inactive
- inhibition [6]: 3%
- IC50 [7]: 13 µM
- inhibition [8]: 22%
- inhibition [9]: 79%
SMILES: CC(=O)Oc1cc(OC(C)=O)c2c(c1)C(=O)c1cc(C)cc(OC(C)=O)c1C2=O [EMODIN TRIACETATE]

- IC50 [10]: 12 µM
- inhibition [11]: 96%
- inhibition [12]: inactive
- inhibition [13]: inactive
SMILES: CC(=O)Oc1cc(OC(C)=O)c2c(c1)C(=O)c1ccc(C)c(OC(C)=O)c1C2=O

- inhibition [14]: inactive
- inhibition [15]: inactive
- inhibition [16]: 14%
- inhibition [17]: inactive
SMILES: COc1cc(OC)c2c(c1)C(=O)c1cc(CBr)cc(OC)c1C2=O

- inhibition [18]: 28%
- inhibition [19]: 3%
- inhibition [20]: 9%
- inhibition [21]: inactive
SMILES: CC(=O)Oc1cc(OC(C)=O)c2c(c1)C(=O)c1cc(CBr)cc(OC(C)=O)c1C2=O

- inhibition [18]: 79%
- inhibition [22]: inactive
- inhibition [20]: 39%
- inhibition [21]: inactive
- IC50 [23]: 18 µM
SMILES: Cc1cc(O)c2c(c1)C(=O)c1cccc(O)c1C2=O [CHRYSOPHANOL]

- inhibition [24]: 22%
- inhibition [25]: inactive
- inhibition [8]: 4%
- inhibition [9]: 26%
SMILES: O=C1c2cc(O)cc(O)c2C(=O)c2c(O)cc(CO)cc21

- inhibition [26]: inactive
- inhibition [27]: inactive
- inhibition [28]: 22%
SMILES: O=C(O)c1cc(O)c2c(c1)C(=O)c1cccc(O)c1C2=O

- inhibition [29]: 100%
- inhibition [30]: 13%
- inhibition [31]: inactive
- inhibition [32]: 5%
- IC50 [33]: 21 µM
SMILES: Cc1ccc2c(c1O)C(=O)c1c(O)cc(O)cc1C2=O

- inhibition [34]: inactive
- inhibition [35]: inactive
- inhibition [36]: inactive
- inhibition [37]: 5%
SMILES: CC(=O)Oc1cccc2c1C(=O)c1c(OC(C)=O)cc(C(=O)O)cc1C2=O
